From publication PMC8373237 (Antimicrobial Agents and Chemotherapy, 2021)
≈ marks a conversion by molar mass, not a printed value. Like-named read-outs stand apart in the source and are kept apart here. Marks after values point to notes of the source that are not given here. Square brackets hold non-standard residues; d marks the D form. Peptide text beside a SMILES is read from it. NPrGly = CCCNCC(=O)O; Sar = CNCC(=O)O

Key:
P. aeruginosa (PAO1) = assay type: cell-based, Pseudomonas aeruginosa
[1] = system: Y. enterocolitica Ysa T3SS (YspF secretion); assay type: cell-based, Yersinia enterocolitica
[2] = system: C. trachomatis serovar L2 in HeLa cells; experiment: Chlamydia infection of HeLa cells (primary and secondary infection); assay type: cell-based, Chlamydia trachomatis; design: key to lowest known inhibitory concentration (∼), cell-based infection assay, Chlamydia: NE: No effect observed
Method: Primary infections. HeLa cell monolayers were infected with C. trachomatis serovar L2 at a multiplicity of infection (MOI) of 1.0 in the presence of one of the following compounds at 9 μM: DMSO, 4EpDN, or 4EpDN 2Sar. Cells were incubated for 24 h in the presence of the above-listed compounds at 37°C and then fixed with 4% paraformaldehyde (PFA). Cells were stained for IncA (Chlamydia inclusion membrane marker), DNA (with DAPI), and MOMP (Chlamydia major outer membrane protein) simultaneously. This method of staining allows visualization of the inclusion independent of MOMP synthesis or transport. The percentage of cells infected (i.e., stained positively for the listed Chlamydia markers) in the presence of the compounds was quantified using confocal microscopy. Quantifications of inclusion take into account both DAPI staining and indirect immunofluoresence with an antibody to MOMP. Ten randomly selected fields of view were measured per experiment. The data represent three biological replicates.
Secondary infections. HeLa cell monolayers were infected with C. trachomatis serovar L2 at an MOI of 1.0 in the presence of one of the following compounds at 9 μM: DMSO, 4EpDN, or 4EpDN 2Sar. Cells were incubated for 48 h in the presence of the above-listed compounds at 37°C. Infected cells were then lysed, and the lysate was applied to fresh HeLa monolayers to enumerate infectious particles. These secondary infections were fixed in 4% PFA at 24 hpi and were stained against MOMP and DNA. The infectious units per ml (IFU/ml) were calculated by averaging the number of infected cells in each of 10 randomly selected fields of view at ×40 magnification on a confocal microscope and multiplying this by the appropriate dilution and area factors. The data represent four biological replicates.

Y. pseudotuberculosis = assay type: cell-based, Yersinia pseudotuberculosis; details: 2xYT, 9-120 µM, 12 h
[3] = system: P. aeruginosa PA103 T3SS (ExoU secretion); assay type: cell-based, Pseudomonas aeruginosa
Kinetic solubility = assay type: physicochemical
Method: […] Then, […] of 15 mM stock compound was added to make a solution of 120 μM final concentration with 0.8% DMSO. The solution was shaken at 37°C for ∼2 h. The solution was passed over a 0.7- μM glass fiber filter. Then, the solution was diluted 1:4 in acetonitrile to crash out any proteins. The solution was centrifuged at 500 × g for 10 min. Avoiding the pellet, 10 μl of supernatant was added to a fresh plate with 90 μl of acetonitrile. The final dilution is 40 times lower. Next, 10 μl of 40× dilution of solution was injected on the Orbi-trap. A 1 μM standard was used for the ratiometric comparison, and the assay was done in triplicate.

[4] = system: Salmonella flagellar T3SS (FliC, FliD secretion); assay type: cell-based, Salmonella enterica Typhimurium; design: key to Fla fliC (Table 2): NE: No effect observed
[5] = system: Salmonella enterica Typhimurium SPI-1 T3SS (SipA, SipC secretion); assay type: cell-based
Ssa-Esc T3SS, EPEC/EHEC [6] = details: culture-based secretion assay, cited from earlier work
[7] = system: Salmonella enterica Typhimurium SPI-1 T3SS; details: cited from earlier work
Ssa-Esc T3SS, EPEC/EHEC [8] = system: Ssa-Esc T3SS, EPEC/EHEC; design: method as in PMID 33316970; details: translocation assay; ref [109]; read-out: IC50, EspF translocation; cited from earlier work
[9] = system: Yersinia pseudotuberculosis Ysc T3SS; details: culture-based secretion assay; ref [87]; cited from earlier work
[10] = system: Salmonella enterica Typhimurium SPI-1 T3SS; details: culture-based secretion assay; ref [87]; cited from earlier work
[11] = system: Yersinia pseudotuberculosis Ysc T3SS; details: cited from earlier work
[12] = system: Pseudomonas aeruginosa Psc T3SS; details: cell-based infection assay, ref [67], cited from earlier work
[13] = system: Chlamydiales T3SS, Chlamydia; details: cell-based infection assay, ref [67], cited from earlier work
Ssa-Esc T3SS, EPEC/EHEC [14] = details: biochemical assay, cited from earlier work
[15] = system: Yersinia pseudotuberculosis Ysc T3SS; details: cited from earlier work; remark: listed apart in the source
[16] = system: Salmonella enterica Typhimurium SPI-1 T3SS; details: translocation assay, cited from earlier work

In the case of CCCN1CC(=O)N(C)CC(=O)N[C@@H](CC(C)C)C(=O)N[C@@H]([C@@H](C)CC)C(=O)N[C@H](CC(C)C)C(=O)N[C@H](Cc2ccccc2)C1=O [4EpDN 2Sar, 4-EpD1,2N 2Sar] (cyclo(I[dL][dF][NPrGly][Sar]L)), the “bacterial viability in broth culture” value (P. aeruginosa (PAO1)) is reported as “did not affect bacterial viability”, the “secretion of YspF, in words” value [1] is reported as “did not affect its secretion” and the “inhibition of formation of infectious progeny” value ([2]; 9 μM, EBs collected at 48 hpi, fresh monolayers 24 h) is reported as “not”. The “decrease of primary inclusion formation” value ([2]; 9 μM, HeLa cells, 24 hpi) was “not”, the “lowest known inhibitory concentration (∼), cell-based infection assay, Chlamydia” value ([2]; Table 2, Chlamydiales) was “NE^d” and the “bacterial viability in broth culture” value (Y. pseudotuberculosis) was “did not affect bacterial viability”. The “T3SS inhibitory activity (ExoU secretion), in words” value [3] was “significantly reduced activity”, the “inhibition of ExoU secretion” value ([3]; 9 µM) was “no effect” and the “inhibition of ExoU secretion” value ([3]; 60 µM) was “no effect”. For the same molecule, the IC50 ([3]; read-out: IC50 (Table S1)) was about 140 µM, the IC50 ([3]; read-out: IC50, inhibition of secretion of T3SS effector ExoU) was 140 µM and the solubility (Kinetic solubility; DMEM (no antibiotics)) was 61 µM (≈ 40.1 µg/mL). The solubility (Kinetic solubility; M9) was 61 µM (≈ 40.1 µg/mL), the “Fla fliC (Table 2)” value [4] was “NE^d” and the “effect on FliC secretion, in words” value [4] was “no significant effect”. The “effect on FliD secretion, in words” value [4] was “no significant effect”, the “concentrations at which inhibition of SipC and SipA secretion was seen” value [5] was “greater than 30 μM” and the “lowest known inhibitory concentration (∼), SipAC secretion” value [5] was “∼30 SipAC^b μM”.

In the case of C/C=C\C=C\[C@@H]1O[C@](O)([C@H](CC)C(=O)NC/C=C/C=C(\C)[C@@H](OC)[C@@H](C)[C@@H]2O[C@H](/C=C/C=C/C=C(\C)C(=O)c3c(O)ccn(C)c3=O)[C@H](O)[C@@H]2O)[C@H](O)[C@H](O)C1(C)C [Aurodox], the “IC50, EspABCD secretion” value (Ssa-Esc T3SS, EPEC/EHEC [6]; ref [103]) is listed as 0.5 μg/ml EspABCD^b.

For O=C/C=C/c1ccccc1 [Cinnamaldehyde], the “lowest known inhibitory concentration (∼), SPI-1, SipAB” value ([7]; footnotes c and e: cell-based infection assay, SipAB biochemical assay, ref [106]) is given as “∼100^c SipAB^e μM”.

In the case of O=C(O[C@@H]1Cc2c(O)cc(O)cc2O[C@@H]1c1cc(O)c(O)c(O)c1)c1cc(O)c(O)c(O)c1 [Epigallocatechin gallate], the “lowest known inhibitory concentration (∼), EspB secretion” value (Ssa-Esc T3SS, EPEC/EHEC [6]; ref [87]) is listed as “∼16 μg/ml EspB^b”, the IC50 (Ssa-Esc T3SS, EPEC/EHEC [8]) is listed as 1.8 µM and the “lowest known inhibitory concentration (∼), Yops secretion” value [9] is listed as “∼16 μg/ml Yops^b”. The “lowest known inhibitory concentration (∼), Sips secretion” value [10] was “∼12μg/ml Sips^b”.

For O=[N+]([O-])c1cc(CN2CCN(c3ccccc3)CC2)c(O)c2ncccc12 [INP1750], the EC50 [11] is given as 12.4 µM, the “lowest known inhibitory concentration (∼), PA” value [12, 68] is given as “∼80^c μM” and the “MIC, Chlamydia” value [13, 68] is given as 25 MIC^c μM.

In the case of O=[N+]([O-])c1cc(CN2CCN(c3ccc(F)cc3)CC2)c(O)c2ncccc12 [INP1855], the EC50 [11] is given as 6.3 µM, the “lowest known inhibitory concentration (∼), PA” value [12, 69] is given as “∼60^c μM” and the “MIC, Chlamydia” value [13, 69] is given as 3.13 MIC^c μM.

In the case of O=C(N/N=C/c1ccc(O)cc1O)c1ccc([N+](=O)[O-])cc1 [ME0055], the “lowest known inhibitory concentration (∼), LEE genes” value (Ssa-Esc T3SS, EPEC/EHEC [14]; ref [76]) is listed as “∼20 LEE genes^e μM”.

For C/C=C(\C)C(O)C(C)/C=C(C)/C=C/C/C(C)=C/Cc1[nH]c(OC)cc(=O)c1C (centres unmarked) [Mer-A 2026B], the “lowest known inhibitory concentration (∼), YopM translocation” value [15] is given as “∼36; ∼9 YopM^f μM”.

In the case of O=c1c(O)c(-c2cc(O)c(O)c(O)c2)oc2cc(O)cc(O)c12 [Myricetin], the “lowest known inhibitory concentration (∼), SipA/B translocation” value ([16]; ref [107]) is given as “∼4 μg/ml SipA/B^f”.

For C=CCc1ccc(Oc2cc(CC=C)cc(O)c2O)cc1 [Obovatol], the IC50 ([7]; cell-based infection assay, ref [89]) is given as 19.8 µM.

For C/C=C(\C)[C@H](O)[C@H](C)/C=C(C)/C=C/C/C(C)=C/Cc1nc(OC)c(OC)c(O)c1C [Piercidin A1], the “lowest known inhibitory concentration (∼), YopM translocation” value [15] is listed as “∼36; ∼9 YopM^f μM”.

For COCCn1c2c([n+](Cc3cnccn3)c1C)C(=O)c1ccccc1C2=O [Sepantronium bromide (YM155), Sepantronium bromide], the “lowest known inhibitory concentration (∼), SseK1/SseK2, NleB” value (Ssa-Esc T3SS, EPEC/EHEC [14]; ref [110]) is listed as “∼2 SseK1/SseK2^e, NleB^e μM”.

In the case of Cc1ccc(C(C)C)c(O)c1 [Thymol], the “lowest known inhibitory concentration (∼), SipA translocation” value ([16]; ref [90]) is listed as “∼0.2 mM SipA^f”.

In the case of Tannic acid, the IC50 (Ssa-Esc T3SS, EPEC/EHEC [8]) is listed as 0.65 µM.
